Assays:
[1] = system: CD95-treated Jurkat cells; test: In-vitro screening: uptake of tritiated compounds into apoptotic Jurkat cells; type: cell-based; conditions: tritiated compound, 30 minutes, 37° C., beta-counter; control untreated uptake set as 1
Experimental: Uptake was measured using beta counter. zVAD treated cells reversed the phenotype decreasing uptake to control values (set as 1) in all tested candidates. Shown are means±SD of three independent experiments performed in triplicates.
For in-vitro screening of the compounds of the invention, apoptosis-induction model in hematopoietic derived cancer cell line, Jurkat was used.
Jurkat cells were cultured in RPMI supplemented with 10% fetal bovine serum, 4 mM L-glutamine, 100 U/ml penicillin and 100 n/ml streptomycin in a humidified incubator at 37° C., 5% CO2. Cells were counted and re-suspended in hepes buffer saline (HBS).
Apoptosis induction: 10^7 cells/ml were incubated for two hours with 0.1 n/ml of anti-Fas (CD95) antibody. For apoptosis inhibition (specific control), induced and control cells were incubated with 50 μM of the specific caspase inhibitor, Zvad. 2 μl Ci of the tritiated compounds or ML-10 as reference, were added to the cells for 30 minutes. All incubations were performed at 37° C. After incubation with the tritiated compounds, cells were washed twice in HBS, transferred to scintillation liquid and radioactivity was monitored using beta-counter. The percentage of uptake was calculated using the standard DPM readings. […]

[2] = Pharmacokinetic evaluation of tritiated candidates in naive and chemotherapy treated mice; conditions: mouse, in vivo
Text: (§1) In order to determine the pharmacokinetics properties of APO-698, its unlabeled analog, APO-697 was used. Table-1 summarizes the pharmacokinetic study performed in CD1 mice for the two unlabeled (cold) analogs, ML-10 and APO-697.

[3] = system: human colorectal cancer cells HCT-116 xenografts; test: In-vivo screening: tumor/blood uptake ratio in HCT-116 xenografts; design: species or system Athymic nude mice; conditions: intravenous tritiated compound, HCT-116 xenograft, FIG. 2 (one and a half hours before samples collection)
Experimental: Athymic nude mice were inoculated with HCT-116 human colorectal cancer cells. Mice were subjected to intravenous injection of tritiated ML-10 and APO-650 one and a half hours before samples collection. Blood samples were taken before sacrificing the animals. Blood and tumor samples radioactivity was measured in a beta-counter.
In order to assess the in-vivo accumulation of ML-10 and compounds of the invention, the uptake into human colorectal cancer cells HCT-116 xenografts was monitored. Athymic nude mice were subcutaneously inoculated with […] HCT-116 cells. After the formation of tumors, ML-10 and APO-650 were intravenously administrated to the mice, 30 and 90 minutes before scarification (n≧8). Peripheral blood samples were collected prior to animals' scarification. Tumors were dissected, homogenized and all samples were calibrated in scintillation fluid before radioactivity was measured in a beta-counter. To inspect signal to noise ratio, the ratio of uptake into the tumor versus blood was calculated.

[4] = Pharmacokinetic study of unlabeled (cold) analogs in CD1 mice; type: in vivo; conditions: for AUC(0-inf) / half-life / clearance / Vd: mouse, in vivo; for clearance: read-out: Total clearance (converted); for Vd: read-out: Vss; for Total clearance, percentage in brackets / Vss, percentage in brackets: reference of the percentage not explained
Text: as §1

[5] = Blood partitioning (red blood cells/plasma); type: in vitro ADME; conditions: mouse blood
Text: as §1

Compound | fold increase uptake of CD95-treated cells (uptake of the tracer into the apoptotic cells) [1] | half-life ([2]; t1/2) | AUC(0-inf) ([4]; unlabeled compound) | half-life ([4]; unlabeled compound) | clearance ([4]; unlabeled compound) | Vd ([4]; unlabeled compound) | Total clearance, percentage in brackets [4] | Vss, percentage in brackets [4] | KRBC/PL [5] | other results
CC(CCCCC[18F])(c1nnn[nH]1)c1nnn[nH]1 [APO-600, 5,5′(7-^18fluoroheptane-2,2-diyl)bis(1H-tetrazole)] | high uptake |  |  |  |  |  |  |  |  | 
O=C(O)c1ccc(CCC[18F])cc1C(=O)O [APO-630, 4-(3-^18fluoropropyl)phthalic acid] | high uptake | 10 min |  |  |  |  |  |  |  | 
CN(CCCCC(C)(C(=O)O)C(=O)O)c1ncc([N+](=O)[O-])s1 [APO-650, 2-methyl-2-{4-[(5-nitro-1,3-thiazol-2-yl)tritritiummethylamino]butyl}propanedioic acid] |  | 8 min |  |  |  |  |  |  |  | tumor/blood ratio [3]: six-fold
COc1cc2c(c(OC)c1OC)-c1ccc(OC)c(=O)cc1[C@@H](NC(=O)CCCCCC(C)(C(=O)O)C(=O)O)CC2 [APO-697, 2-methyl-2-(5-{[(10S)-3,4,5,14-tetramethoxy-13-oxotricyclo[9.5.0.0{2,7}]hexadeca-1(16),2,4,6,11,14-hexaen-10-yl]carbamoyl}pentyl)propanedioic acid] |  |  | 5.16 ng·h/mL | 7.92 min | 64.7 mL/min/kg | 0.435 L/kg | (71.9%) | (60.0%) | 0.07 | Total clearance ([4]; unlabeled compound): higher; Vss ([4]; unlabeled compound): higher volume of distribution; t1/2 ([4]; unlabeled compound): shorter t1/2
CC(CCCCCF)(C(=O)O)C(=O)O [ML-10, (5-fluoropentyl)(methyl)propanedioic acid, reference compound] |  |  | 32.6 ng·h/mL | 11.2 min | 10.2 mL/min/kg | 0.152 L/kg | (11.4%) | (21.0%) | 0.01 | half-life ([2]; Naive mice, tritiated, read-out: t1/2): 10 min
